Data on 23 compounds can be found in US8735398B2 (Bristol-Myers Squibb Company, priority 2009, dated 2014).

One test has as its system HCV 1b genotype. Put plainly: HCV replicon assay (HCV-neo replicon cells, wild-type). The format is cell-based, Hepatitis C virus. The settings on record: HCV 1b genotype replicon; class symbol; read-out: EC50 Range against HCV 1b. As to the method:
An HCV Replicon assay was utilized in the present disclosure, and was prepared, conducted and validated as described in commonly owned PCT/US2006/022197 and in O'Boyle et al., Antimicrob. Agents Chemother, 49(4):1346-1353 (April 2005). Assay methods incorporating luciferase reporters have also been used as described (Apath.com).
HCV-neo replicon cells and replicon cells containing resistance substitutions in the NS5A region were used to test the currently described family of compounds.
The compounds were determined to have differing degrees of reduced inhibitory activity on cells containing mutations vs. the corresponding inhibitory potency against wild-type cells. Thus, the compounds of the present disclosure can be effective in inhibiting the function of the HCV NS5A protein and are understood to be as effective in combinations as previously described in application PCT/US2006/022197 and commonly owned WO 04/014852. It should be understood that the compounds of the present disclosure can inhibit multiple genotypes of HCV. […] In one embodiment, compounds of the present disclosure are inhibitory versus 1a, 1b, 2a, 2b, 3a, 4a, and 5a genotypes.
As a reminder, the EC50 is the concentration that produces a half-maximal response. On to `CN(C)[C@@H](C(=O)N1[C@H](C(=O)Nc2ccc(-c3cnc(-c4ccc(NC(=O)[C@@H]5C[C@@H]6C[C@@H]6N5C(=O)[C@@H](c5ccccc5)N(C)C)cc4)o3)cc2)C[C@@H]2C[C@@H]21)c1ccccc1` [CB-9, (1S,3S,5S,1′S,3′S,5′S)-N,N′-(1,3-oxazole-2,5-diyldi-4,1-phenylene)bis(2-((2R)-2-(dimethylamino)-2-phenylacetyl)-2-azabicyclo[3.1.0]hexane-3-carboxamide)], for which the half-maximal effective concentration (EC50) is below 4.57 nM.

Turning to `CC(C)(C)OC(=O)N1C(C(=O)N2CCCC2C(=O)Nc2ccc(-c3cnc(-c4ccc(NC(=O)C5CCCN5C(=O)C5CC6CC6N5C(=O)OC(C)(C)C)cc4)o3)cc2)CC2CC21` [Example D-31, di-tert-butyl (1S,3S,5S,1′S,3′S,5′S)-3,3′-(1,3-oxazole-2,5-diylbis(4,1-phenylenecarbamoyl(2S)-2,1-pyrrolidinediylcarbonyl))bis(2-azabicyclo[3.1.0]hexane-2-carboxylate)], the EC50 was in the range of 1000 to 10000 nM.

Regarding `C[C@H](NC(=O)[C@](C)(O)c1ccccc1)C(=O)Nc1ccc(-c2cnc(-c3ccc(NC(=O)[C@H](C)NC(=O)[C@](C)(O)c4ccccc4)cc3)o2)cc1` [OL-57], the EC50 was 4.57 to 99 nM.

With `CC(C)(C)OC(=O)N1CCCC1(Cc1ccccc1)C(=O)N1CCC[C@H]1C(=O)Nc1ccc(-c2cnc(-c3ccc(NC(=O)[C@@H]4CCCN4C(=O)C4(Cc5ccccc5)CCCN4C(=O)OC(C)(C)C)cc3)o2)cc1` (stereo partly drawn) [Example D-32, di-tert-butyl 2,2′-(1,3-oxazole-2,5-diylbis(4,1-phenylenecarbamoyl(2S)-2,1-pyrrolidinediylcarbonyl))bis(2-benzyl-1-pyrrolidinecarboxylate)], the EC50 was 1000 to 10000 nM.

Staying with this test, now noted: HCV 1b genotype replicon; class symbols; read-out: EC50 Range against HCV 1b.
On to `CN(C)[C@H](C(=O)N1CCC[C@H]1C(=O)Nc1ccc(-c2cnc(-c3ccc(NC(=O)[C@@H]4CCCN4C(=O)[C@H]([C@H](O)c4ccccc4)N(C)C)cc3)o2)cc1)[C@H](O)c1ccccc1` [JR-14, (S,R,2S)-N,N′-(4,4′-(oxazole-2,5-diyl)bis(4,1-phenylene))bis(1-((2S,3R)-2-(dimethylamino)-3-hydroxy-3-phenylpropanoyl)pyrrolidine-2-carboxamide)], for which the EC50 lay in the range of 1000 to 10000 nM.

Still in this test, the particulars now being: Hepatitis C virus, HCV 1b genotype replicon; class symbol; read-out: EC50 Range against HCV 1b.
Take `CC(=O)N1CCC[C@H]1C(=O)Nc1ccc(-c2nc(C)sc2-c2ccc(NC(=O)[C@@H]3CCCN3C(C)=O)cc2)cc1` [Example D-43, (2S,2′S)-N,N′-((2-methyl-1,3-thiazole-4,5-diyl)di-4,1-phenylene)bis(1-acetyl-2-pyrrolidinecarboxamide)]: the EC50 is 100 to 999 nM.

With `COc1cc(C(=O)N[C@@H](C)C(=O)Nc2ccc(-c3nnc(-c4ccc(NC(=O)[C@H](C)NC(=O)c5cc(OC)c6ccccc6n5)cc4)o3)cc2)nc2ccccc12` [RK-22, N,N′-(1,3,4-oxadiazole-2,5-diylbis(4,1-phenyleneimino((2S)-1-oxo-1,2-propanediyl)))bis(4-methoxy-2-quinolinecarboxamide)], the concentration giving a half-maximal response (EC50) was in the range of 100 to 999 nM.

Take `O=C(Nc1ccc(-c2nnc(-c3ccc(NC(=O)[C@H]4CCCN4C(=O)c4cccc(F)n4)cc3)o2)cc1)[C@H]1CCCN1C(=O)c1cccc(F)n1` [RK-25, (2R,2′R)-N,N′-(1,3,4-oxadiazole-2,5-diyldi-4,1-phenylene)bis(1-((6-fluoro-2-pyridinyl)carbonyl)-2-pyrrolidinecarboxamide)]: the EC50 lay within 100 to 999 nM.

For `CN(C)[C@@H](C(=O)N1CCCC1C(=O)Nc1ccc(-c2ncc(-c3ccc(NC(=O)[C@@H]4CCCN4C(=O)[C@@H](c4ccccc4)N(C)C)cc3)o2)cc1)c1ccccc1` (stereo partly drawn) [OL-51, (2S)-N,N′-(1,3-oxazole-2,5-diyldi-4,1-phenylene)bis(1-((2R)-2-(dimethylamino)-2-phenylacetyl)-2-pyrrolidinecarboxamide)], the EC50 lay within 4.57 to 99 nM.

Consider `CC(=O)N1CCC[C@H]1C(=O)Nc1ccc(-c2nnc(-c3ccc(NC(=O)[C@@H]4CCCN4C(=O)Cc4ccccc4)cc3)o2)cc1` [Example D-54, (2S)-1-acetyl-N-[4-[5-[4-[[[(2S)-1-(phenylacetyl)-2-pyrrolidinyl]carbonyl]amino]phenyl]-1,3,4-oxadiazol-2-yl]phenyl]-2-pyrrolidinecarboxamide], for which the EC50 lay within 1000 to 10000 nM.

`CC1(C(=O)N2CCC[C@H]2C(=O)Nc2ccc(-c3cnc(-c4ccc(NC(=O)[C@@H]5CCCN5C(=O)C5(C)CCC(=O)N5Cc5ccccc5)cc4)o3)cc2)CCC(=O)N1Cc1ccccc1` (stereo partly drawn) [Example D-23, (2S,2′S)-N,N′-(1,3-oxazole-2,5-diyldi-4,1-phenylene)bis(1-((1-benzyl-2-methyl-5-oxo-2-pyrrolidinyl)carbonyl)-2-pyrrolidinecarboxamide)]: the EC50 lay within 1000 to 10000 nM.

`CC(C)C(=O)N1CCC[C@H]1C(=O)Nc1ccc(-c2cc(-c3ccc(NC(=O)[C@@H]4CCCN4C(=O)C(C)C)cc3)[nH]n2)cc1` [OL-31, (2S,2′S)-N,N′-(1H-pyrazole-3,5-diyldi-4,1-phenylene)bis(1-isobutyryl-2-pyrrolidinecarboxamide)]: the EC50 was in the range of 100 to 999 nM.

As to `C[C@H](NC(=O)[C@](C)(O)c1ccccc1)C(=O)Nc1ccc(-c2cc(-c3ccc(NC(=O)[C@H](C)NC(=O)[C@](C)(O)c4ccccc4)cc3)[nH]n2)cc1` [OL-46, (2R,2′R)-N,N′-(1H-pyrazole-3,5-diylbis(4,1-phenyleneimino((2S)-1-oxo-1,2-propanediyl)))bis(2-hydroxy-2-phenylpropanamide)], the EC50 fell in the range of 4.57 to 99 nM.

Turning to `O=C(Nc1ccc(-c2cnc(-c3ccc(NC(=O)[C@@H]4CCCN4C(=O)C4CCCCN4Cc4ccccc4)cc3)o2)cc1)[C@@H]1CCCN1C(=O)C1CCCCN1Cc1ccccc1` (stereo partly drawn) [Example D-21, (2S,2′S)-N,N′-(1,3-oxazole-2,5-diyldi-4,1-phenylene)bis(1-((1-benzyl-2-piperidinyl)carbonyl)-2-pyrrolidinecarboxamide)], the EC50 lay within 1000 to 10000 nM.

On to `CC(=O)O[C@@H](C(=O)N1CCC[C@H]1C(=O)Nc1ccc(-c2ccc(-c3ccc(NC(=O)[C@@H]4CCCN4C(=O)[C@H](OC(C)=O)c4ccccc4)cc3)o2)cc1)c1ccccc1`, for which the EC50 was below 4.57 nM.

As to `O=C(Nc1ccc(-c2cc(-c3ccc(NC(=O)[C@@H]4CCCN4C(=O)Cc4ccccc4)cc3)[nH]n2)cc1)[C@@H]1CCCN1C(=O)Cc1ccccc1` [OL-27, (2S,2′S)-N,N′-(1H-pyrazole-3,5-diyldi-4,1-phenylene)bis[1-(phenylacetyl)-2-pyrrolidinecarboxamide]], the concentration giving a half-maximal response (EC50) lay in the range of 4.57 to 99 nM.

`O=C(Nc1ccc(-c2nnc(-c3ccc(NC(=O)[C@@H]4CCCN4C(=O)C4CC4)cc3)o2)cc1)[C@@H]1CCCN1C(=O)C1CC1` [Example D-58, (2S,2′S)-N,N′-(1,3,4-oxadiazole-2,5-diyldi-4,1-phenylene)bis[1-(cyclopropylcarbonyl)-2-pyrrolidinecarboxamide]]: the EC50 was in the range of 1000 to 10000 nM.

For the compound `O=C(Nc1ccc(-c2nnc(-c3ccc(NC(=O)[C@@H]4CCCN4C(=O)Cc4cccs4)cc3)o2)cc1)[C@@H]1CCCN1C(=O)Cc1cccs1` [Example D-61, (2S,2′S)-N,N′-(4,4′-(1,3,4-oxadiazole-2,5-diyl)bis(4,1-phenylene))bis(1-(2-(thiophen-2-yl)acetyl)pyrrolidine-2-carboxamide)], the EC50 fell in the range of 100 to 999 nM.

Regarding `COc1cccc2c1C=C(Cl)N(c1ccc(-c3ncc(-c4ccc(NC(=O)[C@@H]5C[C@@H]6C[C@@H]6N5C(=O)c5nc(Cl)cc6c(OC)cccc56)cc4)o3)cc1)C2C(=O)N1[C@H](C(N)=O)C[C@@H]2C[C@@H]21` (stereo partly drawn) [CB-4, (1S,3S,5S,1′S,3′S,5′S)-N,N′-(1,3-oxazole-2,5-diyldi-4,1-phenylene)bis(2-((3-chloro-5-methoxy-1-isoquinolinyl)carbonyl)-2-azabicyclo[3.1.0]hexane-3-carboxamide)], the EC50 is 100 to 999 nM.

Still in this test, the particulars now being: Hepatitis C virus, HCV 1b genotype replicon; class symbols; read-out: EC50 Range against HCV 1b.
Turning to `O=C(Nc1ccc(-c2cnc(-c3ccc(NC(=O)[C@@H]4CCCN4C(=O)C4CSC5CCC(=O)N54)cc3)o2)cc1)[C@@H]1CCCN1C(=O)C1CSC2CCC(=O)N21` (stereo partly drawn) [JR-17, (2S,2′S)-N,N′-(2,5-oxazolediyldi-4,1-phenylene)bis[1-[(hexahydro-5-oxopyrrolo[2,1-b]thiazol-3-yl)carbonyl]-2-pyrrolidinecarboxamide]], the EC50 was 1000 to 10000 nM.

With `O=C(Nc1ccc(-c2cnc(-c3ccc(NC(=O)[C@@H]4CCCN4C(=O)C(c4ccccc4)n4c(=O)[nH]c5ccccc54)cc3)o2)cc1)[C@@H]1CCCN1C(=O)C(c1ccccc1)n1c(=O)[nH]c2ccccc21` (stereo partly drawn) [JR-11, (2S,2′S)-N,N′-(2,5-oxazolediyldi-4,1-phenylene)bis[1-[(2,3-dihydro-2-oxo-1H-benzimidazol-1-yl)phenylacetyl]-2-pyrrolidinecarboxamide]], the EC50 is 100 to 999 nM.

As for `O=C(Nc1ccc(-c2cnc(-c3ccc(NC(=O)[C@@H]4CCCN4C(=O)c4ccoc4)cc3)o2)cc1)[C@@H]1CCCN1C(=O)c1ccoc1` [XY-38, (2S,2′S)-N,N′-(1,3-oxazole-2,5-diyldi-4,1-phenylene)bis(1-(3-furoyl)-2-pyrrolidinecarboxamide)], the EC50 is 4.57 to 99 nM.

Regarding `CC(C)(C)O[C@@H]1C[C@@H](C(=O)Nc2ccc(-c3cnc(-c4ccc(NC(=O)[C@@H]5C[C@@H](OC(C)(C)C)CN5C(=O)OCc5ccccc5)cc4)o3)cc2)N(C(=O)OCc2ccccc2)C1` [XY-59, dibenzyl (2S,4R,2′S,4′R)-2,2′-(1,3-oxazole-2,5-diylbis(4,1-phenylenecarbamoyl))bis(4-tert-butoxy-1-pyrrolidinecarboxylate)], the EC50 is 1000 to 10000 nM.

Still in this test, the particulars now being: Hepatitis C virus, HCV 1b genotype replicon; read-out: EC50 1b.
Regarding `CC(=O)N1CCC[C@H]1C(=O)Nc1ccc(-c2nnc(-c3ccc(NC(=O)[C@@H]4CCCN4C(=O)Cc4ccccc4)cc3)o2)cc1` [Example D-54, (2S)-1-acetyl-N-[4-[5-[4-[[[(2S)-1-(phenylacetyl)-2-pyrrolidinyl]carbonyl]amino]phenyl]-1,3,4-oxadiazol-2-yl]phenyl]-2-pyrrolidinecarboxamide], the EC50 worked out at 4760 nM.

For `O=C(Nc1ccc(-c2cc(-c3ccc(NC(=O)[C@@H]4CCCN4C(=O)Cc4ccccc4)cc3)[nH]n2)cc1)[C@@H]1CCCN1C(=O)Cc1ccccc1` [OL-27, (2S,2′S)-N,N′-(1H-pyrazole-3,5-diyldi-4,1-phenylene)bis[1-(phenylacetyl)-2-pyrrolidinecarboxamide]], the EC50 stood at 10 nM.

Turning to `O=C(Nc1ccc(-c2nnc(-c3ccc(NC(=O)[C@@H]4CCCN4C(=O)C4CC4)cc3)o2)cc1)[C@@H]1CCCN1C(=O)C1CC1` [Example D-58, (2S,2′S)-N,N′-(1,3,4-oxadiazole-2,5-diyldi-4,1-phenylene)bis[1-(cyclopropylcarbonyl)-2-pyrrolidinecarboxamide]], the EC50 was 2210 nM.

Consider `O=C(Nc1ccc(-c2nnc(-c3ccc(NC(=O)[C@@H]4CCCN4C(=O)Cc4cccs4)cc3)o2)cc1)[C@@H]1CCCN1C(=O)Cc1cccs1` [Example D-61, (2S,2′S)-N,N′-(4,4′-(1,3,4-oxadiazole-2,5-diyl)bis(4,1-phenylene))bis(1-(2-(thiophen-2-yl)acetyl)pyrrolidine-2-carboxamide)], for which the EC50 stood at 327 nM.
